Where a name gives a salt, the structure may show the parent alone.
Experiments:
IL-23 (p19/p40) = experiment: IL23-p19 ELISA, dendritic cells (DC differentiated from human PBMC, IFNγ primed), LPS stimulated; assay type: cell-based; conditions: Dendritic cell, human PBMC-derived dendritic cells, 1 h compound pre-incubation, LPS 1 μg/ml 18 hours, 10 pt
Description: Compound Screening Using DC Cells
I. Differentiation of PBMC's to DC Cells:
After 2 hours, the media including floating cells was aspirated out carefully and 12 ml of fresh RPMI media (10% FBS) containing GMCSF (100 ng/ml) and IL4 (20 ng/ml) was added, and the flask was kept in a 37° C. incubator for 7 days.
After 3 days, fresh GMCSF (100 ng/ml) and IL4 (20 ng/ml) were added to the flask and the incubation continued. After 7 days, the fully differentiated cells were harvested by spinning down (1200 rpm/5 min) and aspirating the media. The cells were suspended in fresh RPMI media (10% FBS) containing 50 ng/ml IFNγ (1000 U/ml) and then plated (50K/well in 100 μl) onto a white clear bottom 96 well plate and left in a 37° C. incubator for 24 hours.
II. Addition of Compounds:
After 24 hours incubation, 100 μl of RPMI media was added containing 2× concentrated test compound per well to the above cell-culture media (final concentration becomes 1×) and the plates were pre-incubated for 1 hour at 37° C. before stimulating with LPS.
The mixture was shaken and incubated the plates at 37° C. for an additional 18 hours.
155 μl of the supernatant was harvested from each well carefully (without the tip touching the bottom of the well) and to the remaining 50 μl/well of the cell culture plate was added 50 μl of Cell Titer Glo reagent. The mixture was incubated for 1-2 minutes on a shaker and the plate was read for luminescence intensity to determine the compound cytotoxicity. The cell culture supernatant collected above was used to carry out IL23 ELISA (65 μl—Supernatant) and IL10 ELISA (90 μl—Supernatant) as described below.
Human IL-23 (p19/p40) ELISA Protocol (e-Biosciences)
To 10.5 ml PBS add 50 μl of anti-IL23 (p19) was added capture antibody (2.5 μg/ml). The mixture was mixed well and 100 μl of the coating solution was added to each well of the 96 well white plates from Pierce. The wells were covered and incubated overnight at 4° C.
The anti-IL23 (p19)-antibody-coated plates were washed 2× using TBST (use plate washer) and blocked using 200 μl of 0.5% Casein for 1.5-2 hours at room temperature with shaking.
Addition of Supernatant and Detection:
The plates were washed 2× using TBST and the supernatant was transferred (65 μl/well) to the above pre-blocked/IL23(p19)-antibody-coated 96 well plate, and incubated at room temperature for 1.5 hours with shaking.
The plates were washed 4× using TBST (plate washer) and 100 μl/well detection antibody solution prepared from 2 μl of biotin labeled anti-IL-12 (p40/p70) antibody in 11 ml 1% BSA/PBS solution (1-5000 dilution) was added. The plates were incubated for 1 hour with shaking at Room temperature.
Again, the plates were washed 4× with TBST and 100 μl of HRP labeled Streptavidin (R&D Systems) solution (10 μl/10 ml 1% BSA solution) was added, and the plates were incubated at room temperature for another 45 minutes with shaking.
After 45 minutes, the plates were washed with TBST 4× and 100 μl/well Super Signal ELISA Pico Chemiluminescent Substrate from Pierce (3.5 ml A+3.5 ml B+3.5 ml MQ water) was added. The plates were shaken for 1-2 minutes then read on a plate reader.

IL-23p19 = experiment: LPS Induced IL23p19 in THP-1 Cells (with IFNγ Primed) Assay; assay type: cell-based, human; conditions: Homo sapiens, THP-1, THP-1 cells, IFNγ (50 ng/mL) primed, 1 hour compound pre-incubation, LPS 1 ug/mL 18 hours, 10 pt; read-out: IL23-p19 ELISA, THP1-IFNy, LPS, 10 pt EC50
Description: LPS Induced IL23p19 in THP-1 Cells (with IFNγ Primed) Assay
Method THP-1 Cells Stimulation:
On day 1, 50K/well THP-1 cells were seeded and primed with IFNγ (50 ng/mL) in 384-well plates for about 18 hours in RPMI media with 10% FBS. […] 50 μL/well 2× compound was added to 50 μL/well THP-1 cells (with IFNγ primed) in duplicate in 384 well tissue culture plates. […] Day 3, after stimulation for 18 hours at 37° C., 5% CO2, the assay plate was centrifuged and 70 μL/well supernatant was harvested. IL-23p19 protein in 70 μL/well of supernatant was measured by sandwich ELISA, and 25 μl/well Cell Titer Glo reagent was added to the remaining cells to measure compound toxicity.
Human IL-23p19 Sandwich ELISA:
Maxisorp immuno ELISA plates were pre-coated with 25 μL/well of anti-IL-23p19 capture antibody (2.5 ug/mL) in PBS overnight at room temperature. After washing with 1×PBST, the plates were blocked using 100 μL/well of 1% BSA in PBS for 2 hours at room temperature. The plates were washed three times with 1×PBST and 70 μL/well supernatant were added. The plates were incubated at room temperature for 2 hours with shaking and washed three times with 1×PBST. 25 μL/well of biotin labeled anti-IL-12(p40/p70) detection antibody (100 ng/mL) in PBS with 1% BSA was added and the plates were incubated at room temperature for 2 hours with shaking. After washing three times with 1×PBST, 25 μL/well of streptavidin-HRP (1:200) in PBS with 1% BSA was added and the plates were incubated at room temperature for 20 minutes with shaking. The plates were washed three times with 1×PBST and 25 μL/well of Super Signal ELISA Pico Chemiluminescent Substrate were added. The plates were read with a luminometer, and the chemiluminescence values were entered into Athena (Rigel) for curve fitting, EC50 calculation, and database storage.

EC50 (IL-23 (p19/p40)) [µM]	EC50 (IL-23p19) [µM]	Compound
2.38	–	Cn1cc(NC(=O)c2cccc(-c3cn[nH]c3)n2)c(-c2ccc(N3CCOCC3)cn2)n1 [Compound I-171, N-(1-methyl-3-(5-morpholinopyridin-2-yl)-1H-pyrazol-4-yl)-6-(1H-pyrazol-4-yl)picolinamide]
9.16	–	Cn1cc(NC(=O)c2cccc(-c3ccccc3)n2)c(-c2ccccn2)n1 [Compound I-48, N-(1-methyl-3-(pyridin-2-yl)-1H-pyrazol-4-yl)-6-phenylpicolinamide]
10.9	–	COCCOCCn1cc(NC(=O)c2cccc(Nc3cc(C)ncc3C)n2)c(-c2ccccn2)n1 [Compound I-157, 6-((2,5-dimethylpyridin-4-yl)amino)-N-(1-(2-(2-methoxyethoxy)ethyl)-3-(pyridin-2-yl)-1H-pyrazol-4-yl)picolinamide formate]
8.56	–	CC(C)Oc1cncc(-c2cccc(C(=O)Nc3cn(C)nc3-c3ccccn3)n2)c1 [Compound I-22, 5′-isopropoxy-N-(1-methyl-3-(pyridin-2-yl)-1H-pyrazol-4-yl)-[2,3′-bipyridine]-6-carboxamide]
0.0468	–	Cn1cc(NC(=O)c2cccc(-c3cc[nH]n3)n2)c(-c2ccc(N3CCOCC3)cn2)n1 [Compound I-172, N-(1-methyl-3-(5-morpholinopyridin-2-yl)-1H-pyrazol-4-yl)-6-(1H-pyrazol-3-yl)picolinamide]
0.413	–	COCCNc1cncc(-c2cccc(C(=O)Nc3cn(C)nc3-c3ccccn3)n2)c1 [Compound I-31, 5′-((2-methoxyethyl)amino)-N-(1-methyl-3-(pyridin-2-yl)-1H-pyrazol-4-yl)-[2,3′-bipyridine]-6-carboxamide]
–	3.35	Cc1cncc(-c2cccc(C(=O)Nc3cn(C(CO)CO)nc3-c3ccccn3)n2)c1 [Compound I-126, N-(1-(1,3-dihydroxypropan-2-yl)-3-(pyridin-2-yl)-1H-pyrazol-4-yl)-5′-methyl-[2,3′-bipyridine]-6-carboxamide]
–	0.587	Cn1cc(NC(=O)c2cccc(-c3cncc(N4CCOCC4)c3)n2)c(-c2ccccn2)n1 [Compound I-37, N-(1-methyl-3-(pyridin-2-yl)-1H-pyrazol-4-yl)-5′-morpholino-[2,3′-bipyridine]-6-carboxamide]
–	14.7	Cn1cc(NC(=O)c2cccc(-c3ccnc(NCC4CC4)c3)n2)c(-c2ccccn2)n1 [Compound I-159, 2′-((cyclopropylmethyl)amino)-N-(1-methyl-3-(pyridin-2-yl)-1H-pyrazol-4-yl)-[2,4′-bipyridine]-6-carboxamide formate]
–	0.444	Cc1cncc(-c2cccc(C(=O)Nc3cn(CCN4CCOCC4)nc3-c3ccccn3)n2)c1 [Compound I-84, 5′-methyl-N-(1-(2-morpholinoethyl)-3-(pyridin-2-yl)-1H-pyrazol-4-yl)-[2,3′-bipyridine]-6-carboxamide]
–	10.9	COCCOCCn1cc(NC(=O)c2cccc(-c3ccncc3)n2)c(-c2ccccn2)n1 [Compound I-140, N-(1-(2-(2-methoxyethoxy)ethyl)-3-(pyridin-2-yl)-1H-pyrazol-4-yl)-[2,4′-bipyridine]-6-carboxamide formate]
–	40.1	Cn1cc(NC(=O)c2cccc(-c3cncnc3)n2)c(-c2ccccn2)n1 [Compound I-5, N-(1-methyl-3-(pyridin-2-yl)-1H-pyrazol-4-yl)-6-(pyrimidin-5-yl)picolinamide]
–	3.58	COCCn1cc(NC(=O)c2cccc(-c3ccncc3)n2)c(-c2ccccn2)n1 [Compound I-107, N-(1-(2-methoxyethyl)-3-(pyridin-2-yl)-1H-pyrazol-4-yl)-[2,4′-bipyridine]-6-carboxamide formate]
–	3.5	Cn1cc(NC(=O)c2cccc(-c3ccc4[nH]ccc4c3)n2)c(-c2ccccn2)n1 [Compound I-46, 6-(1H-indol-5-yl)-N-(1-methyl-3-(pyridin-2-yl)-1H-pyrazol-4-yl)picolinamide]
–	14.8	Cn1cc(NC(=O)c2cccc(-c3cccc(NS(C)(=O)=O)c3)n2)c(-c2ccccn2)n1 [Compound I-60, N-(1-methyl-3-(pyridin-2-yl)-1H-pyrazol-4-yl)-6-(3-(methylsulfonamido)phenyl)picolinamide]
–	116	Cn1cc(NC(=O)c2cccc(-c3ccnc(C(N)=O)c3)n2)c(-c2ccccn2)n1 [Compound I-41, N6-(1-methyl-3-(pyridin-2-yl)-1H-pyrazol-4-yl)-[2,4-bipyridine]-2′,6-dicarboxamide]
–	21.5	Cn1cc(NC(=O)c2cccc(-c3cncc(F)c3)n2)c(-c2ccccn2)n1 [Compound I-3, 5′-fluoro-N-(1-methyl-3-(pyridin-2-yl)-1H-pyrazol-4-yl)-[2,3′-bipyridine]-6-carboxamide]
–	398	COc1cc(-c2cccc(C(=O)Nc3cn(C)nc3-c3ccccn3)n2)ccn1 [Compound I-21, 2′-methoxy-N-(1-methyl-3-(pyridin-2-yl)-1H-pyrazol-4-yl)-[2,4′-bipyridine]-6-carboxamide]
–	72.1	Cc1cccc(-c2cccc(C(=O)Nc3cn(C)nc3-c3ccccn3)n2)c1 [Compound I-49, N-(1-methyl-3-(pyridin-2-yl)-1H-pyrazol-4-yl)-6-(m-tolyl)picolinamide]
–	22.3	Cn1cc(NC(=O)c2cccc(C3=CCN(C(=O)OC(C)(C)C)CC3)n2)c(-c2ccccn2)n1 [Compound I-61, tert-butyl 6-((1-methyl-3-(pyridin-2-yl)-1H-pyrazol-4-yl)carbamoyl)-3′,6′-dihydro-[2,4′-bipyridine]-1′(2′H)-carboxylate]
–	2.21	COc1ccc(-c2nn(C)cc2NC(=O)c2cccc(-c3cncc(OC(C)C)c3)n2)nc1 [Compound I-70, 5′-isopropoxy-N-(3-(5-methoxypyridin-2-yl)-1-methyl-1H-pyrazol-4-yl)-[2,3′-bipyridine]-6-carboxamide]
–	10.8	Cn1cc(NC(=O)c2cncc(-c3cnn(CC4CC4)c3)c2)c(-c2ccccn2)n1 [Compound I-109, 5-(1-(cyclopropylmethyl)-1H-pyrazol-4-yl)-N-(1-methyl-3-(pyridin-2-yl)-1H-pyrazol-4-yl)nicotinamide]
–	59.1	COc1cccc(-c2cccc(C(=O)Nc3cn(C)nc3-c3ccccn3)n2)c1 [Compound I-51, 6-(3-methoxyphenyl)-N-(1-methyl-3-(pyridin-2-yl)-1H-pyrazol-4-yl)picolinamide]

Compound	EC50 (IL-23 (p19/p40)) [µM]	EC50 (IL-23p19) [µM]
Cn1cc(NC(=O)c2cccc(C3=CCNCC3)n2)c(-c2ccccn2)n1 [Compound I-62, N-(1-methyl-3-(pyridin-2-yl)-1H-pyrazol-4-yl)-1′,2′,3′,6′-tetrahydro-[2,4′-bipyridine]-6-carboxamide]	–	28
